{
  "source": "patent US20250276996A1",
  "about": "“CATIONICALLY-ENFRAMED HIGH DENSITY AROMATIC PEPTIDES” (Research Foundation of the City University of New York, priority 2022, published 2025)",
  "key": {"MDBK cells [1]": {"tested_on": "MDBK cells", "assay": "Cell survival in serum-free media (AlamarBlue)", "assay_type": "cell-based, bovine", "protocol": "Serum starvation experiments: Biotin-HDAP2's ability to improve cell viability and function following serum starvation was assessed. For all experiments, MDBK cells were seeded in 35 mm cell culture dishes (5×10^4 cells) in DMEM medium with 10% FBS (Fetal Bovine Serum) for 24 hrs and then incubated in serum-free medium with or without biotin-HDAP2 (1 μM) for 5 days to induce cell death. For quantitative measurements, wells were washed to remove dead cells, and then stained with AlamarBlue for 60 min. Quantitative analysis of dye conversion was measured using a fluorescent plate reader (550 ex/580 em) and cell viability was expressed as folds change (increase or decrease) over scrum-starved untreated cells.\nEffects of peptides on cell survival in serum-free media: Cell survival in serum starvation conditions was studied in the presence and absence of biotin-HDAP2 using MDBK cells. Cells were plated at a density of 1-2×10^5 cells/well in 96 well plates in DMEM/10% FBS media. The following day, cells were washed and the medium replaced with DMEM serum-free media in the presence or absence of different concentrations of biotin-HDAP2 and incubated for 5 days. Cell viability was assessed using the Resaruzin (Alamar blue) indicator dye. Quantitative analysis of dye conversion was measured using a fluorescent plate reader (ex/em=550/580 nm) and viability was expressed as fold increase over of untreated cells."}, "ARPE-19 cells": {"tested_on": "ARPE-19 cells", "assay": "Restoration of mitochondrial membrane potential after 3 days of serum starvation (TMRM)", "assay_type": "cell-based", "settings": "2 hours incubation after 3 days of serum starvation", "from_the_text": "Serum starvation for 3 days reduced mitochondrial membrane potential in serum-free controls (SFC), compared to regular cells grown on serum (FBS). […] Error bars represent SEM (n=5) ***P<0.001."}, "MDBK cells [2]": {"tested_on": "MDBK cells", "assay": "NAO binding to mitochondria in MDBK cells", "assay_type": "cell-based, bovine", "settings": "NAO 1 μM, biotin-HDAP2 10 μM"}, "HK-2 cells": {"tested_on": "HK-2 cells", "assay": "PCNA expression in serum-starved cells", "assay_type": "cell-based", "settings": "serum starved for 3 days", "from_the_text": "FIG. 18B are representative images of HK-2 cells serum starved for 3 days in the presence or absence of biotin-HDAP2 (SEQ ID NO: 1), HDAP4 (SEQ ID NO: 13), and biotin-HDAP6 (SEQ ID NO: 10) and then tested for the expression of Proliferating Cell Nuclear Antigen (PCNA) (bottom row), a positive marker for cell proliferation. The Hoechst 33342 probe (Hc) was used to label the nucleus to determine cellular localization (top row)."}, "retina": {"tested_on": "retina", "assay": "Biotin-HDAP2 uptake and distribution in retina", "assay_type": "in vivo, mice", "protocol": "Biotin-HDAP2 (40 mg/kg) was administered intraperitoneally to mice (male or female) and 60 minutes later retina was collected, fixed and sectioned. […] (FIG. 7A and FIG. 7B).\nBiotin-HDAP2 uptake in retina: Adult animals were injected with 50 mg/kg biotin-HDAP2 (IP; GenScript, Piscataway, NJ) reconstituted in saline and observed for 2 hours before sacrifice. Eyes were marked to record their orientation, and the animals were given an overdose of ketamine (300 mg/kg)/xylazine (60 mg/kg) (IP) before removing each eye from the orbit with forceps. Whole eyes were dropped into 4% paraformaldehyde that was constituted in either 0.1M Tris or phosphate buffers (pH 7.3) and after ten minutes, the cornea, lens and vitreous body were removed to ensure better penetration of the fixative into the retina. The eyecups were returned to the fixative for one hour. Retinas for wholemounts were dissected from the pigment epithelium by cutting along the or a serrata, gently teasing the retina away from the back of the eye and then freeing the retina by severing the optic nerve. Retinas for cryo-sectioning remained in the eyecup, were cryoprotected in 0.1M Tris or phosphate-buffered sucrose (10%, 20% and 30%) prior to embedding in OCT (Polyfreeze, Polysciences) and sectioned at a thickness of 14 μm at −25° C. using a cryostat (Leica CM3050S).\nImmunohistochemistry: Fixed retinas were labeled with cell markers using conventional immunohistochemical protocols to identify cells and structures associated with biotin-HDAP2, and to identify retinal ganglion cells and starburst amacrine cells to assess cell survival following optic nerve crush. Retinas and sections were blocked and permeabilized with 4% normal donkey serum in 0.1M Tris or phosphate buffers with 0.5% Triton-X for 1 hour and then incubated overnight (for sections) or for 3 days (for wholemounts) at 4° C. in selected primary antibodies, and 2% normal donkey serum in the same buffer. […]"}},
  "note": "Several values for one entry are separate records, joined by “and”; a condition that tells them apart may be missing. Equal entries are not always repeated. Non-standard residues stand in square brackets, D forms with d. Residues, ends and D or L forms follow the SMILES beside them. *: point of attachment. Biotin = O=C1N[C@H]2[C@H](CS[C@H]2CCCCC(=O)*)N1",
  "data": [
    {"smiles": "N=C(N)NCCC[C@@H](NC(=O)[C@H](Cc1ccccc1)NC(=O)[C@H](Cc1ccccc1)NC(=O)[C@@H](CCCNC(=N)N)NC(=O)CCCC[C@@H]1SC[C@@H]2NC(=O)N[C@@H]21)C(N)=O", "note": "[biotin-HDAP2, Biotin-dArg-Phe-Phe-dArg-NH2] (Biotin-[dR]FF[dR]-NH2)", "values": [
      {"measurement": "AlamarBlue fluorescence / protection during serum starvation", "setting": "MDBK cells [1]; 1 μM, 5 days serum starvation", "value": "increased AlamarBlue fluorescence"},
      {"measurement": "increase in cell survival compared to untreated controls", "setting": "MDBK cells [1]; 1 μM, serum-free 5 days, AlamarBlue", "value": 50, "unit": "%"},
      {"measurement": "EC50", "setting": "MDBK cells [1]; serum-free, 5 days, AlamarBlue, read-out: EC50, cell survival in serum-free conditions", "value": "~100 nM and 100 nM"},
      {"measurement": "restoration of mitochondrial membrane potential", "setting": "ARPE-19 cells", "value": "restored mitochondrial membrane potential within 2 hours"},
      {"measurement": "NAO binding to mitochondria", "setting": "MDBK cells [2]", "value": "inhibited NAO binding to mitochondria in MDBK cells"},
      {"measurement": "expression of PCNA and cell proliferation", "setting": "HK-2 cells", "value": "increase proliferation expression of PCNA and cell proliferation during serum starvation"},
      {"measurement": "distribution in retina", "setting": "retina; 3 mg/kg, IP", "value": "labeled all layers of the retina"},
      {"measurement": "distribution in retina", "setting": "retina; 40 mg/kg intraperitoneally, 60 minutes", "value": "widely distributed throughout the retina"},
      {"measurement": "penetration of the retina-blood barrier", "setting": "retina; intravitreal injection and systemic administration", "value": "can penetrate the retina-blood barrier"}
    ]}
  ]
}
